ChEMBL document CHEMBL1143949, “Antiproliferative effects of 6-anilino-5-chloro-1H-benzo[d]imidazole-4,7-dione in vascular smooth muscle cells” (Bioorg Med Chem, 2008)
Activity calls are given as the source filed them. No cut-off for these calls is given here.

Assays:
[1] = molecular target: Mitogen-activated protein kinase 3 (Rattus norvegicus) (UniProt P21708); assay: Activation of ERK1 phosphorylation in rat aortic smooth muscle cells at 1 uM
[2] = Cell cycle arrest in rat aortic smooth muscle cells assessed as accumulation at G2 phase at 1 uM after 16 hrs; type: functional
[3] = molecular target: Mitogen-activated protein kinase 1 (Rattus norvegicus) (UniProt P63086); assay: Activation of ERK2 phosphorylation in rat aortic smooth muscle cells at 1 uM
[4] = Cell cycle arrest in rat smooth muscle cells assessed as accumulation at G2/M phase at 1 uM after 16 hrs; type: functional, cell-based
[5] = Antiproliferative activity against rat aortic smooth muscle cells; type: functional
[6] = organism: Rattus norvegicus; assay: Inhibition of PDGF and FBS-induced migration of rat aortic smooth muscle cells by transwell plate assay; type: functional
[7] = system: NIH3T3; assay: Antiproliferative activity against mouse NIH3T3 cells; type: functional, cell-based
[8] = Cell cycle arrest in rat aortic smooth muscle cells assessed as accumulation at G0/G1 phase at 1 uM after 16 hrs; type: functional
[9] = organism: Rattus norvegicus; assay: Induction of apoptosis in rat aortic smooth muscle cells assessed as caspase 3 activation at 1 uM; type: functional
[10] = molecular target: MAP kinase p38 (Homo sapiens) (UniProt O15264+Q15759+Q16539+P53778); assay: Activation of p38 phosphorylation in rat aortic smooth muscle cells at 1 uM
[11] = Cell cycle arrest in rat aortic smooth muscle cells assessed as accumulation at G1 phase at 1 uM after 16 hrs; type: functional
[12] = organism: Rattus norvegicus; assay: Effect on PDGF and serum-induced cyclin E expression in rat aortic smooth muscle cells at 1 uM; type: functional
[13] = system: HUVEC; assay: Antiproliferative activity against HUVEC; type: functional, cell-based; conditions: Homo sapiens
[14] = Cell cycle arrest in rat aortic smooth muscle cells assessed as accumulation at S phase at 1 uM after 16 hrs; type: functional

Mitogen-activated protein kinase 3 (Rattus norvegicus), sequence (P21708 whole entry): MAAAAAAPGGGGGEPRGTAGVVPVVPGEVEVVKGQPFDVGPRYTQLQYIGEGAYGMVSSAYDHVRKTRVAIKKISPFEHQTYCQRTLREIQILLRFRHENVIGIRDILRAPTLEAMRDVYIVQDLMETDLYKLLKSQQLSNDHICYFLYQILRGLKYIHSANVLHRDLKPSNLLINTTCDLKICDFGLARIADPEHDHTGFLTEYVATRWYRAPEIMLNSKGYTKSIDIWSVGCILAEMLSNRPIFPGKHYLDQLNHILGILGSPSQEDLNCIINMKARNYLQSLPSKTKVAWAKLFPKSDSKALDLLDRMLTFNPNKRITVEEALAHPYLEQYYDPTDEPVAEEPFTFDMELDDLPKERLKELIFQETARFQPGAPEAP
Mitogen-activated protein kinase 1 (Rattus norvegicus), sequence (P63086 whole entry): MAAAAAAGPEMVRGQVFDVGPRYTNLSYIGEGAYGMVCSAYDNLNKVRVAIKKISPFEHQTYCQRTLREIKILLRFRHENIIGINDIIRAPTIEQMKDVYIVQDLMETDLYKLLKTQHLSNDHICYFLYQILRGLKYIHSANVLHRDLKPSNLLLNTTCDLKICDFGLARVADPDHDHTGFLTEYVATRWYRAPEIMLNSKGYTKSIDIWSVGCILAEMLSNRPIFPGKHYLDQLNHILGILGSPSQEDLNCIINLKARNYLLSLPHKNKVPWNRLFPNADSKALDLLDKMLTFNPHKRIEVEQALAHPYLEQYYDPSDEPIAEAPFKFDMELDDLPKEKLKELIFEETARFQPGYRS

SMILES	IC50 [5]	IC50 [7]	IC50 [13]	further results
Cc1nc2c([nH]1)C(=O)/C(=N/c1ccccc1)C(Cl)=C2O	0.8 µM	5.2 µM	1.2 µM	Activity [1]: Active; Activity [2]: inactive; Activity [3]: Active; Activity [4]: 20.1%; Activity [6]: Active; Activity [8]: 56.4%; Activity [9]: Active; Activity [10]: Active; Activity [11]: inactive; Activity [12]: inactive; Activity [14]: 23.3%
Cc1nc2c([nH]1)C(=O)/C(=N/c1cccc(Cl)c1)C(Cl)=C2O	0.9 µM	1.6 µM	0.6 µM	
Cc1ccc(NC2=C(Cl)C(=O)c3nc(C)[nH]c3C2=O)cc1	0.8 µM	1.6 µM	1 µM	
Cc1nc2c([nH]1)C(=O)/C(=N/c1ccc(F)c(F)c1F)C(Cl)=C2O	0.8 µM	1.6 µM	0.5 µM	
Cc1nc2c([nH]1)C(=O)/C(=N/c1cccc(Br)c1)C(Cl)=C2O	1 µM	0.8 µM	0.8 µM	
Cc1nc2c([nH]1)C(=O)/C(=N/c1ccc(C(F)(F)F)cc1)C(Cl)=C2O	0.6 µM	1.1 µM	0.6 µM	
Cc1nc2c([nH]1)C(=O)/C(=N/c1ccc(Cl)cc1)C(Cl)=C2O	2.8 µM	1.3 µM	0.8 µM	
Cc1nc2c([nH]1)C(=O)/C(=N/c1ccc(F)cc1)C(Cl)=C2O	3 µM	1.2 µM	1 µM	
Cc1nc2c([nH]1)C(=O)/C(=N/c1ccc(Cl)cc1Cl)C(Cl)=C2O	0.8 µM	1.2 µM	0.5 µM	
Cc1nc2c([nH]1)C(=O)/C(=N/c1ccc(F)cc1F)C(Cl)=C2O	1.2 µM	0.8 µM	1 µM	
Cc1nc2c([nH]1)C(=O)/C(=N/c1ccc(I)cc1)C(Cl)=C2O	1 µM	0.6 µM	2 µM	
Cc1nc2c([nH]1)C(=O)/C(=N/c1cccc(Cl)c1Cl)C(Cl)=C2O	0.6 µM	2.3 µM	0.3 µM	
